For data set [1], the system named is HEPG2. Nature of the data set: Cytotoxicity on panel of cell lines, TMRE viability (Example II.2). Type of data set: cell-based. Particulars: Homo sapiens, 24 hours, mean, control = 1, read-out: cell viability relative to control, HEPG2 (hepatocellular carcinoma). As to the method: (§1) The leukemia and lymphoma-derived cell lines [MEC-1 cell line (derived from chronic lymphocytic leukemia—CLL), Nalm-16 (acute lymphocytic leukemia—ALL), K562 (chronic myeloid leukemia—CML), HL-60 (acute myeloid leukemia—AML), Maver-1 and Mino (mantle cell lymphoma—MCL), BL-41 (Burkitt lymphoma—BL), WSU-NHL (follicular lymphoma—FL), SUDHL (diffuse large B-cell lymphoma—DLBCL)], primary CLL cells and nonmalignant control primary cells were cultured in suspension in flasks under the following conditions: RPMI 1640 medium (Hyclone) supplemented with 10% fetal bovine serum (FBS, Gibco) and 1% penicillin/streptomycin (Life Technologies), 37° C., 5% CO2 and 95% relative humidity, with optimal culture cell density 5×10^6 cells/mL in case of primary cells and 0.5-1×10^6 cells/mL in case of cell lines. The adherent cell lines [A375 (derived from malignant melanoma), MDA-MB-231 and MCF-7 (breast cancer), MIA-PA-CA and PANC1 (pancreatic cancer), PC3 (prostate cancer), OVCAR4 (ovarian cancer) and HEPG2 (hepatocellular carcinoma)] were cultured on plates under the same conditions using RPMI1640 or DMEM medium (Gibco) according to instructions provided by the distributor (DSMZ/ATCC).
(§2) The tested cell lines were incubated with inhibitors at 30 μM concentration or corresponding amount of solvent (DMSO, Sigma Aldrich) in standard culture conditions, seeded as 10^5 cells/500 μl per well in a 24-well plate. Experiments were performed in technical duplicates and 2-3 biological repetitions per cell line. Viability of cells was assessed after 24 hours.
(§3) Relative values are presented as a mean value, showing ratio to the effect of control. Relative value <1=lower viability than control condition.

Data set [2] has as its system Maver1. The description is as above. Type of data set: cell-based. To be noted: Homo sapiens, 24 hours, mean, control = 1, read-out: cell viability relative to control, Maver1 (MCL). As to the method:
as §1, §2, §3

The subject of data set [3] is OVCAR4. The data set is described as above. Type of data set: cell-based. Particulars: Homo sapiens, OVCAR-4, 24 hours, mean, control = 1, read-out: cell viability relative to control, OVCAR4 (ovarian cancer). As to the method:
as §1, §2, §3

The test system of data set [4] is primary CLL cells. Nature of the data set: Cytotoxicity, TMRE flow cytometry viability, primary CLL cells (Example II.1). Type of data set: cell-based. To be noted: Homo sapiens, CLL cell, 6 hours, TMRE positive cells normalized to control, ratio to PF670462, <1 = higher cytotoxicity than PF670462, read-out: Viability of cells, Compound of formula I (100 μM), relative to PF670462 (100 μM), CLL primary cells.

The test system of data set [5] is WSU-NHL. Nature of the data set: Cytotoxicity on panel of cell lines, TMRE viability (Example II.2). To be noted: Homo sapiens, 24 hours, mean, control = 1, read-out: cell viability relative to control, WSU-NHL (FL). The format is cell-based. As to the method: as §1, §2, §3
Data set [6] has as its system Mino. The description is as above. Type of data set: cell-based. To be noted: Homo sapiens, 24 hours, mean, control = 1, read-out: cell viability relative to control, Mino (MCL). How it is done: as §1, §2, §3
For data set [7], the system named is primary CLL. The data set is described as above. Type of data set: cell-based. To be noted: Homo sapiens, 24 hours, mean, control = 1, read-out: cell viability relative to control, primary CLL. How it is done:
as §1, §2, §3

The subject of data set [8] is MCF-7. Described as above. Type of data set: cell-based. Particulars: Homo sapiens, MCF7, 24 hours, mean, control = 1, read-out: cell viability relative to control, MCF-7 (breast cancer). How it is done:
as §1, §2, §3

The subject of data set [9] is Maver-1 cells (mantle cell lymphoma). Put plainly: Cytotoxicity, TMRE flow cytometry viability, Maver-1 cells (Example II.1). The format is cell-based. Particulars: Homo sapiens, Maver1, 24 hours, TMRE positive cells normalized to control, ratio to PF670462, <1 = higher cytotoxicity than PF670462, read-out: Viability of cells, Compound of formula I (100 μM), relative to PF670462 (100 μM), Maver-1 cells (mantle cell lymphoma).

Data set [10] can be described thus: Pharmacokinetic study, oral dosing, plasma concentration by LC-MS/MS (Example II.5). Type of data set: in vivo. Particulars: mouse, male Balb/c mice, oral 20 mg/kg as dihydrochloride in saline, free base quantified, below LLOQ designated zero; for concentration at 15 min: read-out: conc. at 15 min; for concentration at 30 min: read-out: conc. at 30 min; for concentration at 60 min: read-out: conc. at 60 min; for concentration at 120 min: read-out: conc. at 120 min; for concentration at 240 min: read-out: conc. at 240 min; for concentration at 600 min: read-out: conc. at 600 min. How it is done:
Male Balb/c mice (10-12 weeks old, body weight 24.1 to 30.8 g and average body weight across all groups 26.8 g, SD=1.7 g) were used in this study. The animals were randomly assigned to the treatment groups before the pharmacokinetic study; all animals were fasted for 4 h before dosing. The time points indicated in Table 4 were set for this pharmacokinetic study. Each of the time point treatment group included 4 animals. There was also control group of 2 animals. The compounds were dosed orally as the corresponding dihydrochlorides dissolved in physiological saline (c=3-4 mg/mL) at the dose of 20 mg/kg.
Mice were injected IP with 2,2,2-tribromoethanol at the dose of 150 mg/kg prior to drawing the blood. Blood collection was performed from the orbital sinus in microtainers containing K2EDTA. Animals were sacrificed by cervical dislocation after the blood samples collection. All samples were immediately processed, flash-frozen and stored at −70° C. until subsequent analysis.
Plasma samples (50 μL) were mixed with 200 μL of internal standard solution. After mixing by pipetting and centrifuging for 4 min at 6,000 rpm, 0.5 μL of each supernatant was injected into LC-MS/MS system.
The analyzed compound (as a dihydrochloride salt) was dissolved in DMSO, and the resulting solution with concentration of 2 mg/mL was used for calibration standards preparation (stock solution). A series of calibration standards was prepared by consecutively dilution of stock compound solution with blank mouse plasma to a final concentration of 40 000, 20 000, 10 000, 5 000, 2 500, 1000, 500, 250, 100, 50, and 20 ng/mL. Standard plasma samples (50 μL) were mixed with 200 μL of internal standard. After mixing by pipetting and centrifuging for 4 min at 6,000 rpm, 0.5 μL of each supernatant was injected into LC-MS/MS system. Signal corresponding to the free base was analyzed and quantified (Table 4).
The regression analysis of the analyzed compound was performed by plotting the peak area ratio (y-axis) against the compound concentration in calibration standards (x-axis, ng/mL).
The concentrations of the analyzed compound in plasma samples below the lower limit of quantitation (LLOQ—5 ng/mL to 20 ng/mL) were designated as zero.

For data set [11], the system named is MIA-PA-CA. Nature of the data set: Cytotoxicity on panel of cell lines, TMRE viability (Example II.2). Type of data set: cell-based. Particulars: Homo sapiens, MIA PaCa-2, 24 hours, mean, control = 1, read-out: cell viability relative to control, MIA-PA-CA (pancreatic cancer). How it is done: as §1, §2, §3
Data set [12] relates to A375. The data set is described as above. Type of data set: cell-based. Particulars: Homo sapiens, A-375, 24 hours, mean, control = 1, read-out: cell viability relative to control, A375 (melanoma). As to the method:
as §1, §2, §3

For data set [13], the system named is SUDHL. Described as above. The format is cell-based. To be noted: 24 hours, mean, control = 1, read-out: cell viability relative to control, SUDHL (DLBCL). As to the method: as §1, §2, §3
For data set [14], the system named is MEC-1. The description is as above. Type of data set: cell-based. Particulars: Homo sapiens, MEC1, 24 hours, mean, control = 1, read-out: cell viability relative to control, MEC-1 (CLL). As to the method:
as §1, §2, §3

For data set [15], the system named is HL60. The data set is described as above. Type of data set: cell-based. To be noted: Homo sapiens, HL-60, 24 hours, mean, control = 1, read-out: cell viability relative to control, HL60 (AML). As to the method:
as §1, §2, §3

In data set [16] the test system is BL-41. Described as above. Type of data set: cell-based. To be noted: Homo sapiens, 24 hours, mean, control = 1, read-out: cell viability relative to control, BL-41 (BL). How it is done:
as §1, §2, §3

Each structure is given as a SMILES string.

Regarding `Fc1ccc(-c2ncn(CC3CCCO3)c2-c2ccnc3[nH]ccc23)cc1` (stereo not drawn) [Preparative Example 27, 4-(4-(4-fluorophenyl)-1-((tetrahydrofuran-2-yl)methyl)-1H-imidazol-5-yl)-1H-pyrrolo[2,3-b]pyridine], the viability at 30 µM in data set [1] was 85%; in data set [2], 78%; in data set [3], 84%.
As for `Fc1ccc(-c2ncn(Cc3ccco3)c2-c2ccnc3[nH]ccc23)cc1` [Preparative Example 81, 4-(4-(4-fluorophenyl)-1-(furan-2-ylmethyl)-1H-imidazol-5-yl)-1H-pyrrolo[2,3-b]pyridine], the viability at 100 µM in data set [4] was 60%; in [9], 10%. The viability at 30 µM in data set [1] worked out at 58%; in data set [2], 51%; in data set [5], 68%; in data set [6], 37%; in data set [7] it was 77%; in data set [8], 68%.
For the compound `CN1CCC(Cn2cnc(-c3ccc(F)cc3)c2-c2ccnc3[nH]ccc23)CC1` [Preparative Example 102, 4-(4-(4-fluorophenyl)-1-((1-methylpiperidin-4-yl)methyl)-1H-imidazol-5-yl)-1H-pyrrolo[2,3-b]pyridine], in [10], the concentration at 15 min was found to be 620 nM, the concentration at 30 min amounted to 720 nM, the concentration at 60 min stood at 400 nM and the concentration at 120 min turned out to be 530 nM. Besides, in data set [10], the concentration at 240 min is 480 nM and the concentration at 600 min stood at 0 nM. Further, the viability at 100 µM in data set [4] is 68%. The viability at 100 µM in data set [9] came out at 69%.
Consider `Cn1cnc(Cn2cnc(-c3ccc(F)cc3)c2-c2ccnc3[nH]ccc23)n1` [Preparative Example 106, 4-(4-(4-fluorophenyl)-1-((1-methyl-1H-1,2,4-triazol-3-yl)methyl)-1H-imidazol-5-yl)-1H-pyrrolo[2,3-b]pyridine], for which the viability at 30 µM in data set [11] was 68%; in [12] it was 79%; in data set [1] it was 24%; in data set [2] it was 54%; in data set [5] it was 82%; in [3], 89%. For the same compound, the viability at 30 µM in data set [6] was found to be 85%; in data set [8] it was 65%. The viability at 100 µM in data set [9] was determined as 7%.
Consider `CN(C)[C@H]1C[C@@H](n2cnc(-c3ccc(F)cc3)c2-c2ccnc3[nH]ccc23)C1` [Preparative Example 123, (1R,3s)-3-(4-(4-fluorophenyl)-5-(1H-pyrrolo[2,3-b]pyridin-4-yl)-1H-imidazol-1-yl)-N,N-dimethylcyclobutan-1-amine], for which, in [10], the concentration at 15 min is 1350 nM, the concentration at 30 min was found to be 920 nM, the concentration at 60 min worked out at 520 nM and the concentration at 120 min was 130 nM. Also, in [10], the concentration at 240 min amounted to 0 nM and the concentration at 600 min amounted to 0 nM. The viability at 100 µM in data set [4] was determined as 58%. The viability at 100 µM in [9] stood at 78%.
Regarding `CN1CCC(F)(Cn2cnc(-c3ccc(F)cc3)c2-c2ccnc3[nH]ccc23)CC1` [Preparative Example 126, 4-(1-((4-fluoro-1-methylpiperidin-4-yl)methyl)-4-(4-fluorophenyl)-1H-imidazol-5-yl)-1H-pyrrolo[2,3-b]pyridine], in data set [10], the concentration at 15 min was 2380 nM, the concentration at 30 min was 1830 nM, the concentration at 60 min is 840 nM and the concentration at 120 min was 760 nM. In data set [10], the concentration at 240 min was determined as 380 nM and the concentration at 600 min worked out at 0 nM. Also, the viability at 100 µM in [4] was determined as 64%. In data set [9], the viability at 100 µM was determined as 71%.
As for `Fc1ccc(-c2ncn(C3CCCCC3)c2-c2ccnc3[nH]ccc23)cc1F` [Preparative Example 173], the viability at 100 µM in data set [4] amounted to 2%; in [9] it was 1%. In addition, the viability at 30 µM in [11] was determined as 74%; in data set [1] it was 58%; in [13] it was 3%; in [14] it was 9%; in data set [15], 77%; in data set [2] it was 0%. Also, the viability at 30 µM was 16% in [5]; 1% in data set [6]; 5% in [16]; 62% in [7]; 52% in data set [8].

(Values after patent publication US11498920B2, “4-(1H-imidazol-5-yl)-1H-pyrrolo[2, 3-b] pyridines for use in the treatment of leukaemias, lymphomas and solid tumors” (MASARYKOVA UNIVERZITA, priority 2018, dated 2022).)
